We go through 5 compounds from patent US20020077352A1, “N-methyl-D-aspartate receptor antagonists” (priority 2000, published 2002).

As a reminder, the IC50 is the concentration that gives 50% inhibition.

One test has as its system NMDARs. The test can be described thus: whole-cell patch clamp, NMDA-evoked currents in cultured mouse cortical neurons. The format is cell-based. On the procedure: NMDA (200 μM) alone, NMDA plus aqueous Salvia miltiorrhiza extract (100 μl in 10 ml Hanks solution) and NMDA plus 20 nM tanshinone IIA were applied for about 3 seconds (black bars) in the continuous presence of glycine (10 μM) and absence of Mg^2+.
The ordinate indicates the percent steady-state block of currents evoked by 200 μM NMDA plus 10 μM glycine in the absence of Mg^2+.
NMDA (100 μM) or increasing concentrations of NMDA (100 μM-1600 μM) plus tanshinone IIA (20 nM) were applied for about 3 seconds (indicated by the black bars) in the continuous presence of glycine (10 μM) and absence of Mg^2+,
I/V curves were constructed by subtracting the response in the presence of NMDA (200 μM) plus tanshinone from the control response during the application of NMDA alone for 2 seconds at membrane holding potentials from −60 mV to +60 mV. Data from 2 to 5 sweeps were averaged for each trace.
(§1) The whole-cell patch clamp technique was used in mouse cortical neuronal cultures in order to screen for NMDAR antagonists in Danshen, the root of Salvia milthiorriza Bunge. […] Tanshinones are plant-derived diterpenoid quinones.
The concentration dependence of the steady-state block of NMDA-induced currents was determined in order to obtain the dose/response curve of the NMDAR antagonist action of the tanshinones (FIG. 2). The data were fit according to a logistic equation and the concentration at which 50% of the NMDA-evoked response was blocked (IC50) was calculated from the equation.
Concentration-response curves were obtained in the presence of a saturating dose of tanshinone and increasing amounts of NMDA in cultured mouse cortical neurons (FIG. 3a).
The voltage-dependence of the inhibitory effects of the tanshinones was assessed by constructing current/voltage (I/V) plots in the presence or absence of the drugs (FIG. 3b).

The target of test [1] is T1, recombinant NMDARs composed of NR1 and NR2D subunits (Homo sapiens, UniProt O15399+Q05586).
T1 construct: expressed in transfected cells; host or cells: HEK293, transiently transfected
T1 sequence (O15399 28-1336, other chains not shown): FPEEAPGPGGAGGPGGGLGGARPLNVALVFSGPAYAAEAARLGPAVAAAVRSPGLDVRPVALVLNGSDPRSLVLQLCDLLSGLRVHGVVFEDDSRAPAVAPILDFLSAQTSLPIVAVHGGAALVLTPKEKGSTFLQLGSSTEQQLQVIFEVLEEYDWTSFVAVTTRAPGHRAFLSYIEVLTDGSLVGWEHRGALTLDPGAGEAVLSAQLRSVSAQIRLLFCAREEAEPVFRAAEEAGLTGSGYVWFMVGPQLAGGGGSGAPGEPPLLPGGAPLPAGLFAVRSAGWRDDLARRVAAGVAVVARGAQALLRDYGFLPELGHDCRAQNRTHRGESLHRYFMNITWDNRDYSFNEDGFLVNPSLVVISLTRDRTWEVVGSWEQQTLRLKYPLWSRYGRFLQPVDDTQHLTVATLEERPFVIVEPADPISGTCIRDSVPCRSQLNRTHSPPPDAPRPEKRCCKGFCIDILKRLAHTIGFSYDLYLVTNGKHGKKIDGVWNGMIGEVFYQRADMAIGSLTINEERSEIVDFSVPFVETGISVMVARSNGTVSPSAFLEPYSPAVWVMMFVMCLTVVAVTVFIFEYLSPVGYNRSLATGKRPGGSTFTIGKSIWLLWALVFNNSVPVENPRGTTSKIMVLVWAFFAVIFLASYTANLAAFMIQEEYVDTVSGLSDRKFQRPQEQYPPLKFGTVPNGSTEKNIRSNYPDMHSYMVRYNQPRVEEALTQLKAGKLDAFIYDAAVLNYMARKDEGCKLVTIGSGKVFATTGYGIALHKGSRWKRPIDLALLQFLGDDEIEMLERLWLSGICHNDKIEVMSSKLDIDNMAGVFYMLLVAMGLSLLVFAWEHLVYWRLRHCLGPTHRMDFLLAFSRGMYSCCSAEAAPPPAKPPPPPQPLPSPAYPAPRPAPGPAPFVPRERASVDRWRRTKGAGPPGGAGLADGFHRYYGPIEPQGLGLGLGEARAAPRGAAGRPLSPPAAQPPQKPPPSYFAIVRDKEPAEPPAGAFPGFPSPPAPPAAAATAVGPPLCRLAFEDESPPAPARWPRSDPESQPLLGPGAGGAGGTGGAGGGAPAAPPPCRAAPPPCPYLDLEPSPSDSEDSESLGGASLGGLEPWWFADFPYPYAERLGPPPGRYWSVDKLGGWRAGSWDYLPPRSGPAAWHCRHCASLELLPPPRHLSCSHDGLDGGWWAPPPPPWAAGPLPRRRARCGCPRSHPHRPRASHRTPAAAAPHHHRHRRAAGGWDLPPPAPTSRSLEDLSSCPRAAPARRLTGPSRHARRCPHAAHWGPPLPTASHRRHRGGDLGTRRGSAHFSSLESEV
The test can be described thus: NMDA-induced current in transiently transfected HEK293 cells expressing recombinant NR1/NR2D NMDARs. Conditions: for block of the NMDA-induced current, NR1/NR2D: 100 nM, co-application of NMDA and glycine, absence of Mg2+. The format is cell-based. An excerpt:
(§2) This example also compared the blocking efficacy of the tanshinones in transiently transfected human embryonic kidney (HEK) 293 cells expressing recombinant NMDARs containing either the NR1/NR2B or NR1/NR2D subunit combinations.

In a further test the test system is GABAA receptors. The experiment in a line: whole-cell patch clamp, currents activated by GABA in cultured cortical neurons. The format is cell-based, mouse. Conditions: GABA 20 μM; n=3.
From the text: as §1
(§3) The present example examined whether tanshinones inhibited currents of AMPA and GABAA receptors evoked by AMPA or GABA, respectively.

Test [2] addresses T2, recombinant NMDARs composed of the NR1 and NR2B subunits (Homo sapiens, UniProt Q05586+Q13224).
T2 construct: expressed in transfected cells; host or cells: HEK293, transiently transfected
The test can be described thus: NMDA-induced current in transiently transfected HEK293 cells expressing recombinant NR1/NR2B NMDARs. It counts as cell-based.
From the text: as §2

The test system of another test is AMPA receptors. The experiment in a line: whole-cell patch clamp, currents activated by AMPA in mouse cultured cortical neurons. Conditions: AMPA 10 μM; 100 nM compound. The format is cell-based.
From the text: as §1, §3
For orientation: In patch-clamp work, channel activity is measured electrically.

Test [3] relates to central benzodiazepine receptors. Conditions: cited from earlier work.
[4] abbreviates: 200 μM NMDA plus 10 μM glycine, absence of Mg2+; 95% confidence interval given in brackets; read-out: IC50, steady-state block of NMDA-induced currents.
Setting [5] is: I/V plots, holding potentials −60 mV to +60 mV.
The mark [6] stands for this setting: purified tanshinones, patch-clamp assay (20 nM, FIG. 1d).

Where two headings read alike, the source gives them in different places.

T2 sequence (Q13224 27-1484, other chains not shown): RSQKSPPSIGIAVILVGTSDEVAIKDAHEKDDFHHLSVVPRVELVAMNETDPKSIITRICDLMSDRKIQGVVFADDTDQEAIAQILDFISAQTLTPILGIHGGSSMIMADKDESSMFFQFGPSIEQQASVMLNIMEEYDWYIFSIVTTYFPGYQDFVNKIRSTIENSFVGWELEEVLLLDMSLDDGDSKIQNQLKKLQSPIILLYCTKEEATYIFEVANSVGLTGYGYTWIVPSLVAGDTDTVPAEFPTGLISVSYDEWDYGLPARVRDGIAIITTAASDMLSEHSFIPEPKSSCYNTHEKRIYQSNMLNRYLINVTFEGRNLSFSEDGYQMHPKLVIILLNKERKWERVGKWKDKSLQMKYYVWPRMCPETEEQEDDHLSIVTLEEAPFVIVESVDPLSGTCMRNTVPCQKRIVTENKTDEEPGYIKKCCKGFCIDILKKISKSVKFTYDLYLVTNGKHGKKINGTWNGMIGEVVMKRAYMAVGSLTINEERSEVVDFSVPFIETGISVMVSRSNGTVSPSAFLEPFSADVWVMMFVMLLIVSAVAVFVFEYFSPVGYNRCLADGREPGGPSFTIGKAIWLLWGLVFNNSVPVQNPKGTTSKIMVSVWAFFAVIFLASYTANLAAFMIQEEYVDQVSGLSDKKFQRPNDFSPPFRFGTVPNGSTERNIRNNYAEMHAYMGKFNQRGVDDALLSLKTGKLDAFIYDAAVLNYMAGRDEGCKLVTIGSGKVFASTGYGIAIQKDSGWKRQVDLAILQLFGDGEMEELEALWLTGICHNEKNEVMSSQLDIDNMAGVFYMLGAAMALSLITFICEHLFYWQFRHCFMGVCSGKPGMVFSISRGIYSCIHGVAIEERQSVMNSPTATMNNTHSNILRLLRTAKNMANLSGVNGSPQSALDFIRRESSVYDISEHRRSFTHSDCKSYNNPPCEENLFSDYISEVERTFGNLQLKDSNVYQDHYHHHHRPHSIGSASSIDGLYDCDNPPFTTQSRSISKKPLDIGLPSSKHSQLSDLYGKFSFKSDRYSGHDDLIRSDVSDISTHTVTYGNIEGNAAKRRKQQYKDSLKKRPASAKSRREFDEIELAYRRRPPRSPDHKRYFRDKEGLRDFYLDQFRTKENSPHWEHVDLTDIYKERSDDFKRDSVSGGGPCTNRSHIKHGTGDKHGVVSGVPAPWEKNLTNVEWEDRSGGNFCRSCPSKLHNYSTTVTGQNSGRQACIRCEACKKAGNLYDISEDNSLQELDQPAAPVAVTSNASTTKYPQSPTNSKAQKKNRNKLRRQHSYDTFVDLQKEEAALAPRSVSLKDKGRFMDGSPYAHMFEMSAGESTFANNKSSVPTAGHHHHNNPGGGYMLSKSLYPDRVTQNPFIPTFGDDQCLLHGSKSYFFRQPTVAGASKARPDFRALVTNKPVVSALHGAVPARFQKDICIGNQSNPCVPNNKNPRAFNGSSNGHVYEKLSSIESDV

Take `Cc1coc2c1C(=O)C(=O)c1c-2ccc2c1CCCC2(C)CO` (stereo not drawn) [tanshinone IIB]: the IC50 in the test on NMDARs (setting [4]) is 1.1 nM. Further, in the test on NMDARs (setting [5]), the “voltage-dependence of inhibition of NMDA-induced whole-cell currents” value was “voltage-independent”. In addition, the “inhibition of the NMDA-induced currents” value in the test on NMDARs (setting [6]) is recorded as “strong, but readily reversible inhibition”. Moreover, in test [1], the “block of the NMDA-induced current, NR1/NR2D” value (“block … NR1/NR2D” below) is 52±11%.
Take `Cc1coc2c1C(=O)C(=O)c1c-2ccc2c(C)cccc12` [tanshinone I]: the IC50 with NMDARs (setting [4]) amounted to 3.7 nM. For the same compound, the “voltage-dependence of inhibition of NMDA-induced whole-cell currents” value with NMDARs (setting [5]) is reported as “voltage-independent”. The “inhibition of the NMDA-induced currents” value with NMDARs (setting [6]) is on record as “strong, but readily reversible inhibition”. Moreover, the “block … NR1/NR2D” value in test [1] was 4±1%.
For `Cc1coc2c1C(=O)C(=O)c1c-2ccc2c1CCCC2(C)C` [tanshinone IIA], the “block of currents activated by GABA” value in the test on GABAA receptors came out at 10±3%. In addition, the IC50 with NMDARs (setting [4]) was 3.4 nM. In addition, the “voltage-dependence of inhibition of NMDA-induced whole-cell currents” value in the test with NMDARs (setting [5]) was “voltage-independent”. The “mode of inhibition with respect to agonist NMDA and co-agonist glycine” value in the test with NMDARs (fixed saturating dose of tanshinone (20 nM), increasing NMDA 100-1600 μM) is listed as “non-competitive inhibition”. The “inhibition of the NMDA-induced currents” value with NMDARs (setting [6]) is “strong, but readily reversible inhibition”. In addition, in test [2], the “voltage-dependence of inhibition, NR2B containing receptors” value was “voltage-independent”. The “block … NR1/NR2D” value in test [1] was 61±11%. For the same compound, the “voltage-dependence of inhibition, NR2D containing receptors” value in test [1] (greatly reduced efficacy at positive potentials) was “voltage-dependent”. Besides, the “inhibition of currents activated by AMPA” value in the test on AMPA receptors stood at 6±3%.
Regarding `CC(C)C1=Cc2ccc3c(c2C(=O)C1=O)CCCC3(C)C` [miltirone], the IC50 in the test with NMDARs (setting [4]) came to 2.1 nM. The “voltage-dependence of inhibition of NMDA-induced whole-cell currents” value in the test with NMDARs (setting [5]) is “voltage-independent”. Moreover, in the test with NMDARs (setting [6]), the “inhibition of the NMDA-induced currents” value is on record as “strong, but readily reversible inhibition”. Also, the “activity at central benzodiazepine receptors” value in test [3] is reported as “partial agonists”. The “block … NR1/NR2D” value in test [1] was 11±2%.
On to `C[C@H]1COC2=C1C(=O)C(=O)c1c2ccc2c1CCCC2(C)C` [cryptotanshinone], for which the IC50 in the test with NMDARs (read-out: IC50, steady-state block of NMDA-induced currents; 200 μM NMDA plus 10 μM glycine, absence of Mg2+; 95% confidence interval given in brackets) worked out at 1.7 nM. The “block … NR1/NR2D” value in test [1] was 10±1%.
